Experimental data: US20230138851A1, “NOVEL ALKYNE DERIVATIVES” (CARNA BIOSCIENCES, INC., priority 2020, published 2023)

Legend:
Assay type in all cases: biochemical
[1] = target: T1, DYRK1A (Homo sapiens, UniProt Q13627); assay: Inhibition test on activity of DYRK family, mobility shift assay (MSA), DYRK1A; conditions: ATP 100 μM, FITC-labeled DYRKtide peptide substrate, room temperature 1 hour; for IC50: read-out: Inhibitory Activity 1a (IC50 against DYRK1A)
T1 construct: purchased Carna Biosciences, Inc. 04-130
Protocol: (§1) [Inhibition Test on Activity of DYRK Family (DYRK1A, DYRK1B, DYRK2, and […])]
(§2) (Method for Measuring Kinase Activity)
(§3) The kinase activity was measured by mobility shift assay (MSA) method using QuickScout Screening Assist™ MSA (commercially available kit manufactured by Carna Biosciences, Inc.). The substrate of the kinase reaction used was an FITC-labeled DYRKtide peptide included in the kit. An assay buffer [20 mM HEPES, 0.01% Triton X-100™, 2 mM dithiothreitol, pH 7.5] was used to create a substrate mixture solution with a substrate (4 μM), MgCl2 (20 mM), and ATP (DYRK1A: 100 μM; DYRK1B: 200 μM; DYRK2: 40 μM; and DYRK3: 20 μM). In addition, kinases (DYRK1A: manufactured by Carna Biosciences, Inc., Cat. No. 04-130; DYRK1B: manufactured by Carna Biosciences, Inc., Cat. No. 04-131; DYRK2; manufactured by Carna Biosciences, Inc., Cat. No. 04-132; and DYRK3; manufactured by Carna Biosciences, Inc., Cat. No. 04-133) were diluted with the assay buffer to prepare enzyme solutions (DYRK1A: 0.2 ng/μL; DYRK1B: 0.08 ng/μL; DYRK2: 0.04 ng/μL; and DYRK3: 0.25 ng/μL). The 10 mM solution of the test compound in DMSO was further diluted with DMSO to 10 levels of the concentration (0.00003 mM, 0.0001 mM, 0.0003 mM, 0.001 mM, 0.003 mM, 0.01 mM, 0.03 mM, 0.1 mM, 0.3 mM, and 1 mM), each of which was subjected to 25-fold dilution with the assay buffer to obtain a drug solution (4% DMSO solution). 5 μL of the drug solution or a control solution (4% DMSO-assay buffer), 5 μL of the substrate mixture solution, and 10 μL of the enzyme solution were mixed in the wells of a polypropylene 384-well plate and allowed to react at room temperature for 1 hour, and then the reaction was quenched by adding 60 μL of the termination buffer included in the kit. Subsequently, the quantities of the substrates (S) and the phosphorylated substrate (P) in the reaction solution were measured using LabChip EZ Reader II system (manufactured by Caliper Life Sciences) according to the protocol of the assay kit.
(§4) (Method for Evaluating Inhibitory Activity)
(§5) The heights of the peaks of the “substrate” and the “phosphorylated substrate” were expressed as S and P, respectively, and a blank containing the assay buffer instead of the enzyme solution was also measured.
(§6) The inhibition rate (%) of the test compound was calculated according to the following equation:
(§7) Inhibition rate (%)=(1−(C−A)/(B−A))×100
(§8) wherein, A, B, and C represent P/(P+S) of the blank well, P/(P+S) of the control solution well, and P/(P+S) of the compound-containing well, respectively.
(§9) The IC50 value was calculated via a regression analysis of the inhibition rate and the test compound concentration (logarithmic value).
(§10) The inhibiting activities of representative compounds of the present invention are shown against DYRK1A, DYRK1B, DYRK2, and DYRK3 in Tables 7 and 8. The kinase activity inhibitory effect was indicated with the mark *** at an IC50 value of less than 0.01 μM; the mark ** at 0.01 μM or more and less than 0.1 μM; the mark * at 0.1 μM or more and less than 1 μM; and the mark — at 1 μM or more (N.D. indicates not measured).

[2] = target: T2, DYRK3 (Homo sapiens, UniProt O43781); assay: Inhibition test on activity of DYRK family, mobility shift assay (MSA), DYRK3; conditions: ATP 20 μM, FITC-labeled DYRKtide peptide substrate, room temperature 1 hour; for IC50: read-out: Inhibitory Activity 3 (IC50 against DYRK3)
T2 construct: purchased Carna Biosciences, Inc. 04-133
T2 sequence (O43781 1-588): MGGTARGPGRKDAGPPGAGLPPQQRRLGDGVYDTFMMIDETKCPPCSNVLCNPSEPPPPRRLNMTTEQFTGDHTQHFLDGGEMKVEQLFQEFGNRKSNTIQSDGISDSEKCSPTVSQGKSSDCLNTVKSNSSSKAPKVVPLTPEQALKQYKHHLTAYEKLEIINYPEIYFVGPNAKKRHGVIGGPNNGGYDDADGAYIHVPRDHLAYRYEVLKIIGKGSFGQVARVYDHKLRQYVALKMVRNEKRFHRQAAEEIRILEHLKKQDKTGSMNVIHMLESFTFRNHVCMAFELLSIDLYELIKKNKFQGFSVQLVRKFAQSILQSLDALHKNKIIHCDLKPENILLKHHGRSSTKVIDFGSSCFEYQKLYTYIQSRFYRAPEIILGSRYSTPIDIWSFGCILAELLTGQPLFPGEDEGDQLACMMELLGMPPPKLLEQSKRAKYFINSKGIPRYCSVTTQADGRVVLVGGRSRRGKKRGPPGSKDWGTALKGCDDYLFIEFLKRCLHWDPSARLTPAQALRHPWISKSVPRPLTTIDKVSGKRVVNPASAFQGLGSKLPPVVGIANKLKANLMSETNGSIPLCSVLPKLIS
Protocol: as §1, §2, §3, §4, §5, §6, §7, §8, §9, §10

[3] = target: T3, DYRK2 (Homo sapiens, UniProt Q92630); assay: Inhibition test on activity of DYRK family, mobility shift assay (MSA), DYRK2; conditions: ATP 40 μM, FITC-labeled DYRKtide peptide substrate, room temperature 1 hour; for IC50: read-out: Inhibitory Activity 2 (IC50 against DYRK2)
T3 construct: purchased Carna Biosciences, Inc. 04-132
T3 sequence (Q92630 1-601): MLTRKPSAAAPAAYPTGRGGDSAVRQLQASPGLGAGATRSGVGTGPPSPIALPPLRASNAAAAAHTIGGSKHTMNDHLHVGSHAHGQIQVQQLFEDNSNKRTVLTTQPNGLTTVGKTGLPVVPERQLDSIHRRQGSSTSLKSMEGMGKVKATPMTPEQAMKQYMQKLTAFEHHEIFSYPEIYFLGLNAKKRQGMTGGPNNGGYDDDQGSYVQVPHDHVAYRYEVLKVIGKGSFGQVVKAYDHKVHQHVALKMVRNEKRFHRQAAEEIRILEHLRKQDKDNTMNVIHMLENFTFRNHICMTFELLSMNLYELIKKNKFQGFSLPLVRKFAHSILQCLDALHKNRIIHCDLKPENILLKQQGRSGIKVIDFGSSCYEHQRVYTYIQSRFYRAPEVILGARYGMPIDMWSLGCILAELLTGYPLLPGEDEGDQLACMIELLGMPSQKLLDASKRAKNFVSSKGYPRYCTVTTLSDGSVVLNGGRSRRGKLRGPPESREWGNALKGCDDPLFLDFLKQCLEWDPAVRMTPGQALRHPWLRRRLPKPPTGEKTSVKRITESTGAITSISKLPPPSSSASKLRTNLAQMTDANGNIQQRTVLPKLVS
Protocol: as §1, §2, §3, §4, §5, §6, §7, §8, §9, §10

Structure (SMILES) | IC50 [1] | IC50 [2] | IC50 [3] | Inhibitory Activity 1a (IC50 against DYRK1A) [1] | Inhibitory Activity 3 (IC50 against DYRK3) [2] | Inhibitory Activity 2 (IC50 against DYRK2) [3]
CC#CC1CNC(=O)N1c1nc2c3c(ccc2s1)OCCN3CCN1CCCCC1 (racemic) [Example 43, (RS)-1-{9-[2-(piperidin-1-yl)ethyl]-8,9-dihydro-7H-thiazolo[4′,5′:3,4]benz[1,2-b][1,4]oxazin-2-yl}-5-(prop-1-yn-1-yl)imidazolidin-2-one] | 0.1 to 1 µM | ≥ 1 µM | ≥ 1 µM |  |  | 
CC#CC1CNC(=O)N1c1nc2c3c(ccc2s1)OCCN3CCN1CCN(C)CC1 (racemic) [Example 44, (RS)-1-{9-[2-(4-methylpiperazin-1-yl)ethyl]-8,9-dihydro-7H-thiazolo[4′,5′:3,4]benz[1,2-b][1,4]oxazin-2-yl}-5-(prop-1-yn-1-yl)imidazolidin-2-one] | ≥ 1 µM | ≥ 1 µM | ≥ 1 µM |  |  | 
CC#CC1CNC(=O)N1c1nc2c3c(ccc2s1)OCCN3C1CC1 (racemic) [Example 45, (RS)-1-(9-cyclopropyl-8,9-dihydro-7H-thiazolo[4′,5′:3,4]benz[1,2-b][1,4]oxazin-2-yl)-5-(prop-1-yn-1-yl)imidazolidin-2-one] |  | 0.1 to 1 µM | 0.1 to 1 µM | * * |  | 
CC#CC1CNC(=O)N1c1nc2c3c(ccc2s1)OCC(=O)N3C (racemic) [Example 46, (RS)-9-methyl-2-[2-oxo-5-(prop-1-yn-1-yl)imidazolidin-1-yl]-7H-thiazolo[4′,5′:3,4]benz[1,2-b][1,4]oxazin-8(9H)-one] |  | 0.1 to 1 µM | ≥ 1 µM | * * |  | 
CC#CC1CNC(=O)N1c1nc2c3c(ccc2s1)OCCN3S(C)(=O)=O (racemic) [Example 47, (RS)-1-[9-(methylsulfonyl)-8,9-dihydro-7H-thiazolo[4′,5′:3,4]benz[1,2-b][1,4]oxazin-2-yl]-5-(prop-1-yn-1-yl)imidazolidin-2-one] |  | 0.1 to 1 µM | ≥ 1 µM | * * |  | 
CC#CC1CNC(=O)N1c1nc2c(ccc3[nH]ncc32)s1 (racemic) [Example 50, (RS)-5-(prop-1-yn-1-yl)-1-(6H-thiazolo[4,5-e]indazol-2-yl)imidazolidin-2-one] |  | ≥ 1 µM | ≥ 1 µM | * * |  | 
CC#CC1CNC(=O)N1c1nc2c(ccc3nn(C)cc32)s1 (racemic) [Example 51, (RS)-1-(7-methyl-7H-thiazolo[4,5-e]indazol-2-yl)-5-(prop-1-yn-1-yl)imidazolidin-2-one] |  | 0.1 to 1 µM | 0.1 to 1 µM | * * * |  | 
CC#CC1N(c2nc3c4c(ccc3s2)OCC4)C(=O)NC1(C)C (racemic) [Example 54, (RS)-1-(7,8-dihydrobenzofuro[4,5-d]thiazol-2-yl)-4,4-dimethyl-5-(prop-1-yn-1-yl)imidazolidin-2-one] |  | ≥ 1 µM | ≥ 1 µM | * * |  | 
CC#CC1CNC(=O)N1c1nc2c3c(ccc2s1)OCCO3 (racemic) [Example 55, (RS)-1-(7,8-dihydro-[1,4]dioxyno[2′,3′:5,6]benzo[1,2-d]thiazol-2-yl)-5-(prop-1-yn-1-yl)imidazolidin-2-one] |  | 0.1 to 1 µM | 0.1 to 1 µM | * * * |  | 
CC#C[C@@H]1[C@H](CO)NC(=O)N1c1nc2c3c(ccc2s1)OCC3 (relative stereo) [Example 60, cis-1-(7,8-dihydrobenzofuro[4,5-d]thiazol-2-yl)-4-(hydroxymethyl)-5-(prop-1-yn-1-yl)imidazolidin-2-one] |  |  | 0.1 to 1 µM | * * * | * * | 
CC#C[C@H]1[C@H](CO)NC(=O)N1c1nc2c3c(ccc2s1)OCC3 (relative stereo) [Example 61, trans-1-(7,8-dihydrobenzofuro[4,5-d]thiazol-2-yl)-4-(hydroxymethyl)-5-(prop-1-yn-1-yl)imidazolidin-2-one] |  | 0.1 to 1 µM | 0.1 to 1 µM | * * * |  | 
CC#C[C@@H]1[C@H](CO)NC(=O)N1c1nc2c3c(ccc2s1)OCCO3 (relative stereo) [Example 64, cis-1-(7,8-dihydro-[1,4]dioxino[2′,3′:5,6]benz[1,2-d]thiazol-2-yl)-4-(hydroxymethyl)-5-(prop-1-yn-1-yl)imidazolidin-2-one] |  | 0.1 to 1 µM | 0.1 to 1 µM | * * * |  | 
CC#C[C@@H]1[C@H](CC)NC(=O)N1c1nc2c3c(ccc2s1)OCC3 (relative stereo) [Example 73, cis-1-(7,8-dihydrobenzofuro[4,5-d]thiazol-2-yl)-4-ethyl-5-(prop-1-yn-1-yl)imidazolidin-2-one] |  | 0.1 to 1 µM | 0.1 to 1 µM | * * * |  | 
CC#C[C@@H]1[C@H](CF)NC(=O)N1c1nc2c3c(ccc2s1)OCC3 (relative stereo) [Example 80, cis-1-(7,8-dihydrobenzofuro[4,5-d]thiazol-2-yl)-4-(fluoromethyl)-5-(prop-1-yn-1-yl)imidazolidin-2-one] | < 0.01 µM | 0.1 to 1 µM | ≥ 1 µM |  |  | 
CC#CC1CNC(=O)N1c1nc2c3c(ccc2s1)OCC3 (single isomer, unassigned) [Example 9, 1-(7,8-dihydrobenzofuro[4,5-d]thiazol-2-yl)-5-(prop-1-yn-1-yl)imidazolidin-2-one] |  |  |  | * * * | * * | * *
